Measurements from patent US11730705B2, “Small molecule CMKLR1 antagonists in inflammatory disease” (The Board of Trustees of the Leland Stanford Junior …, priority 2019, dated 2023).
Read-outs that look alike come from different tables or passages of the source.

What was measured:
CMKLR1 = target: T1, CMKLR1 (Homo sapiens, UniProt Q99788); assay: β-arrestin recruitment assay (chemerin-mediated β-arrestin2 association with CMKLR1); format: cell-based
T1 construct: host or cells: CHO-K1 (PathHunter)
T1 sequence (Q99788 1-373): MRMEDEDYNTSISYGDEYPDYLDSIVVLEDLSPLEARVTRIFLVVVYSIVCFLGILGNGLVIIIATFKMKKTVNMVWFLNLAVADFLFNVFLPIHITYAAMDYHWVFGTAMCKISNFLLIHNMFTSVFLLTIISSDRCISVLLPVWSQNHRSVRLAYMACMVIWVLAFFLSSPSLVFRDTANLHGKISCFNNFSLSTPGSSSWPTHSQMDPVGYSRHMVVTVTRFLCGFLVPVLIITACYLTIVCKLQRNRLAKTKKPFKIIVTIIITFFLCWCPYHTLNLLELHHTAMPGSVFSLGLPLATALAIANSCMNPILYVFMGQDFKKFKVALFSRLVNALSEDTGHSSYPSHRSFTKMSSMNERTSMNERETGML
Description: (§1) FIG. 15A-15D. […] IC50 values were determined based on 6-point dose-response curves for each compound. (FIG. 15A) α-NETA. […] (FIG. 15A-15C) mean±SEM, n=3-18 independent experiments. […] 0.2 ml each compound (in 10% captisol) or vehicle control was administered by oral gavage beginning one day prior to psoriasis induction. Back skin thickness was measured daily and normalized to day 0. mean±SEM, n=10 mice for vehicle and α-NETA groups pooled from two independent trials; n=3 mice for (27) and (6) from one trial.
Cell culture. […] DiscoverX PathHunter® CHO-K1 CMKLR1 β-Arrestin Cells were grown in RPMI lacking phenol red (Gibco, Life Technologies), supplemented with L-glutamine, penicillin-streptomycin, sodium pyruvate, non-essential amino acid, BCS, hygromycin, and G418-sulfate.
β-arrestin recruitment assay. CMKLR1-CHO-β-Arrestin cells were seeded in 96 well plates at 1×10^5 cell/ml-100 ul/well and incubated overnight at 37° C., 5% CO2. The next day, media was removed and cells were pre-incubated in PBS with α-NETA or test compound (95 ul/well) in a 6 point dose response curve from 100 μM to 0.3 μM for 10 min at RT. (α-NETA and test compounds were reconstituted in DMSO; final DMSO concentration in each well was 0.1%). After 10 min, 5 ul of recombinant human chemerin (R&D Systems) at a final concentration of 20 nM was added to each well. Plates were incubated for 90 min at 37° C., 5% CO2. Media was then removed and 50 ul of chemiluminescent substrate (Tropix Gal-Screen, Applied Biosciences) was added. The plate was incubated for 1 hr at RT and luminescence was detected using the SpectraMax M5 plate reader (Molecular Devices). For each independent trial (single replicate dose curves), data was normalized to the maximum signal per compound tested and an IC50 value was generated using GraphPad Prism software. The average IC50 value for n independent trials (as specified in the table) is reported.

(hu)CMKLR1 L1.2 cells = target: T2, (hu)CMKLR1 L1.2 cells (Homo sapiens, UniProt Q99788); assay: Chemotaxis assay (chemerin-dependent CMKLR1+ cell migration); format: cell-based; details: for IC50: Table 3, migration toward huChemerin, 2 h transwell, read-out: Chemotaxis IC50 μM mean ± SEM (n)
T2 construct: expressed in transfected cells; host or cells: L1.2 pre-B cell lymphoma cells
T2 sequence (Q99788 1-373): T1 sequence (Q99788 1-373)
Description: Cell culture. (hu)CMKLR1 transfectants (generated in L1.2 pre-B cell lymphoma cells) were grown in RPMI 1640 (Corning) supplemented with L-glutamine, penicillin-streptomycin, and 10% BCS and G418-sulfate (KSE Scientific). DiscoverX PathHunter® CHO-K1 CMKLR1 β-Arrestin Cells were grown in RPMI lacking phenol red (Gibco, Life Technologies), supplemented with L-glutamine, penicillin-streptomycin, sodium pyruvate, non-essential amino acid, BCS, hygromycin, and G418-sulfate.
Chemotaxis assay. (hu)CMKLR1 L1.2 cells at 1×10^6 cell/ml were treated with 5 mM sodium butyrate (Sigma) overnight to induce hCMKLR1 expression. The next day, cells were washed in migration media (RPMI+0.5% BSA) and resuspended at 1.5-3×10^6 cell/ml. Cells were pre-incubated at RT for 10 min with various concentrations of α-NETA or test compounds (α-NETA and test compounds were reconstituted in DMSO; final DMSO concentration in each well was 0.1%). 100 ul of cells were added to the upper chamber of a 24-well transwell plate (5 um pore size, Costar). Cells were allowed to migrate toward huChemerin ([…] in migration media, bottom chamber) for 2 h, 37° C., 5% CO2. The number of migrated cells was quantified by flow cytometry (BD LSR2), and live cells were distinguished based on FSC×SSC properties. The background for this assay was typically low with 0 cells migrating to the buffer alone. For each independent trial, data was normalized to the maximum migration per compound tested and an IC50 value was generated using GraphPad Prism software. The average IC50 value for n independent trials (as specified in the table) is reported.

[1] = test system: IMQ-induced psoriasis in mice; assay: IMQ-induced psoriasis model; format: in vivo, mouse; details: for clinical features of experimental psoriasis: oral gavage in 10% captisol, FIG. 15D
Description: FIG. 11A-11G. […] Representative images of the same mouse shown over time. […] Mice were treated twice daily with IMQ±dexamethasone (DEX, 200 ug/mouse) 1 h prior to IMQ treatment. […] (FIG. 11G) NK cell (CD45+DX5+CD11b-CD3-CD19-) infiltration into lesional or non-lesional adjacent skin was determined by flow cytometry (6 day timepoint) for IMQ-treated WT and chemerin KO mice. mean±SEM, n=4 mice per genotype, ***p<0.005 by 2-tailed t-test; **p<0.01 by 2-tailed t-test; *p<0.05 by 1-tailed t-test.
FIG. 13A-13D. […] Fold change with respect to day 0 measurements are shown. […] For A-C, n=3 untreated, n=5 IMQ-treated mice of each genotype, mean±SEM, *p<0.05 by 2-tailed t-test.
as §1

EAE in C57BL/6 mice = assay: EAE induced by MOG35-55/CFA immunization; format: in vivo, mouse; details: Table 4, 10 mg/kg daily to D 21, n = 8; for Maximum Score (Mean ± SEM): clinical score 0-5; for AUC (Mean ± SEM): mean clinical score × day
Description: FIG. 1A-1D. […] (FIG. 1D) The integrated clinical score over time for each animal was calculated as area under the curve (AUC).
EAE. […] CFA consisted of 5 mg/ml mTB (Mycobacterium-tuberculosis H37 Ra, BD Difco) in IFA (Incomplete Freund's Adjuvant, Sigma). MOG35-55 was reconstituted at 2 mg/ml in PBS. Mice also received 200 ng pertussis toxin (List Biological Laboratories, Inc) by i.p. injection at the time of immunization and two days later. […] For a direct comparison to α-NETA, the DMF and compound doses were also 10 mg/kg in 10% captisol. Mice were monitored daily for clinical disease and scored (0=normal/healthy, 1=limp tail, 2=hindlimb weakness, 3=hindlimb paralysis, 4=hindlimb and forelimb paralysis, 5=moribund/dead).

[2] = Table 3, quaternary ammonium salts, chemerin 20 nM, CHO transfectants, read-out: β-arrestin IC50 μM mean ± SEM (n)
[3] = values given in running text b220, read-out: β-arrestin2 assay IC50
[4] = Table 2, tertiary amines, chemerin 20 nM, CHO transfectants, read-out: β-arrestin IC50 μM mean ± SEM (n)

Row | Structure (SMILES) | IC50 (CMKLR1; [2]) | IC50 ((hu)CMKLR1 L1.2 cells) | IC50 (CMKLR1; [4]) | further results
1 | C[N+](C)(C)CCC(=O)c1ccccc1 [Compound 24] | 5.6 ± 0.7 µM | > 100 µM | – | activity in β-arrestin2 assay (CMKLR1): showed activity; IC50 (CMKLR1; [3]): 4.3 µM; activity in chemotaxis assay ((hu)CMKLR1 L1.2 cells): did not show any activity
2 | CCN(C)CCC(=O)c1ccc2ccccc2c1 [Compound 9] | – | – | 39.6 µM | –
3 | COc1cccc(OC)c1C(=O)CCN(C)C [Compound 19] | – | – | 10.3 ± 4.5 µM | –
4 | COc1ccc(C(=O)CCN(C)C)cc1 [Compound 17] | – | – | > 100 µM | –
5 | CN(C)CCC(=O)c1ccc2ccccc2c1 [Compound 7] | – | – | 18.5 µM | –
6 | COc1ccccc1C(=O)CC[N+](C)(C)C [Compound 26] | 2.9 ± 1.6 µM | 7.2 µM | – | activity in β-arrestin2 assay (CMKLR1): highly active; activity in chemotaxis assay ((hu)CMKLR1 L1.2 cells): highly active
7 | CCN(C)CCC(=O)c1ccccc1 [Compound 13] | – | – | 16.8 ± 8.3 µM | –
8 | COc1cccc(OC)c1C(=O)CC[N+](C)(C)C.[I-] [Compound 30] | 2.1 ± 1.1 µM | 6.8 µM | – | activity in β-arrestin2 assay (CMKLR1): highly active; activity in chemotaxis assay ((hu)CMKLR1 L1.2 cells): highly active
9 | COc1ccc2cc(C(=O)CCN(C)C)ccc2c1 [Compound 11] | – | – | > 100 µM | –
10 | C[N+](C)(C)CCC(=O)C1CCCCC1 [Compound 25] | – | > 100 µM | – | IC50 (CMKLR1; [3]): 11.9 µM
11 | C[N+](C)(C)CCS(=O)(=O)c1ccccc1.[I-] [Compound 35] | – | – | – | activity in β-arrestin2 assay (CMKLR1): inactive
12 | CN(C)CCC(=O)c1cccc2ccccc12 [Compound 3] | – | – | 18.8 µM | –
13 | CN(C)CCC(=O)C1CCCCC1 [Compound 20] | – | – | > 100 µM | activity in β-arrestin2 assay (CMKLR1): complete loss of activity
14 | C[C@@H]1C[C@H]2[C@@H]3CCC4=CC(=O)C=C[C@]4(C)[C@@]3(F)[C@@H](O)C[C@]2(C)[C@@]1(O)C(=O)CO [dexamethasone, reference compound] | – | – | – | percent inhibition of skin thickening ([1]; day 5 post-IMQ, 200 ug/mouse 1 h prior to IMQ): 62±6%
15 | COc1cccc(C(=O)CC[N+](C)(C)C)c1 [Compound 28] | 3.8 ± 1.7 µM | 14.6 ± 4.8 µM | – | –
16 | COc1ccc2ccccc2c1C(=O)CCN(C)C [Compound 6] | – | – | 6.2 ± 2.5 µM | clinical features of experimental psoriasis [1]: suppressed; Maximum Score (Mean ± SEM) (EAE in C57BL/6 mice): 2.4 ± 0.2; AUC (Mean ± SEM) (EAE in C57BL/6 mice): 25.2 ± 4.0; Day of onset (Mean ± SEM) (EAE in C57BL/6 mice): 14.5 ± 0.4

Row | Structure (SMILES) | IC50 (CMKLR1; [2]) | IC50 ((hu)CMKLR1 L1.2 cells) | IC50 (CMKLR1; [4]) | further results
17 | COc1ccc2cc(C(=O)CC[N+](C)(C)C)ccc2c1 [Compound 32] | 1.5 ± 0.3 µM | 20 ± 6.2 µM | – | –
18 | COc1ccc(C(=O)CC[N+](C)(C)C)c(OC)c1 [Compound 29] | 4.8 ± 1.6 µM | 17.4 ± 2.2 µM | – | –
19 | CCCCN(C)CCC(=O)c1ccccc1 [Compound 15] | – | – | > 100 µM | –
20 | C[N+](C)(C)CCC(=O)c1ccc2ccccc2c1 [Compound 23] | 2.5 ± 0.9 µM | 24.1 µM | – | IC50 (CMKLR1; [3]): 3.1 µM
21 | COc1ccc(C(=O)CC[N+](C)(C)C)cc1 [Compound 27] | 1.9 ± 0.2 µM | 4.5 ± 1.5 µM | – | clinical features of experimental psoriasis [1]: suppressed; activity in β-arrestin2 assay (CMKLR1): highly active; Maximum Score (Mean ± SEM) (EAE in C57BL/6 mice): 2.1 ± 0.1¶; AUC (Mean ± SEM) (EAE in C57BL/6 mice): 24.3 ± 4.2; Day of onset (Mean ± SEM) (EAE in C57BL/6 mice): 16.0 ± 0.9; activity in chemotaxis assay ((hu)CMKLR1 L1.2 cells): highly active
22 | COc1ccc2ccccc2c1C(=O)CC[N+](C)(C)C [Compound 33] | 0.6 ± 0.3 µM | 10.7 µM | – | –
23 | CCN(CC)CCC(=O)c1cccc2ccccc12 [Compound 5] | – | – | 8.9 ± 2.4 µM | –
24 | COc1ccccc1C(=O)CCN(C)C [Compound 16] | – | – | > 100 µM | –
25 | CCN(C)CCC(=O)c1cccc2ccccc12 [Compound 4] | – | – | 17.9 µM | –
26 | CCCCN(C)CCC(=O)c1ccc2ccccc2c1 [Compound 10] | – | – | 44.5 µM | –
27 | COc1cccc(C(=O)CCN(C)C)c1 [Compound 18] | – | – | 64 µM | –
28 | CN(C)CCC(=O)c1ccccc1 [Compound 12] | – | – | > 100 µM | –
29 | CCN(CC)CCC(=O)c1ccccc1 [Compound 14] | – | – | 77.8 µM | –
30 | COc1cc(OC)cc(C(=O)CC[N+](C)(C)C)c1 [Compound 31] | 6 ± 2.2 µM | > 100 µM | – | –
31 | CCN(CC)CCC(=O)c1ccc2ccccc2c1 [Compound 8] | – | – | 71.3 µM | –
